{"source": "patent US20070136825A1", "about": "“Fusion proteins useful for detecting analytes” (priority 2001, published 2007)", "origin": "cited, not measured here", "conditions": "glucose; GGBP alone; Zukin et al.; read-out: Kd Binding protein, glucose", "data": [{"substance": "GGBP: glucose/galactose binding protein (mglB, E. coli), SEQ ID NO:4", "values": [{"measurement": "Kd", "result": 210, "unit": "nM"}]}]}
